Assay results reported in patent US20070148051A1, “Chemical volatilization device” (Dainihon Jochugiku Co., Ltd., priority 2005, published 2007).

What was measured:
[1] = system: harmful insects such as mosquitoes and midges; assay: Experiment Example 2: device suspended in a doghouse, insecticidal effects; assay type: in vivo; conditions: 70 mg Compound A retained, 1400 rpm, 8 hours per day for about 30 days
Source text: Two-dimensional mesh-like chemical-retaining fibers 2 were woven using twisted polyester fibers, and supportive connecting chemical-retaining fibers 3 (upper and lower widths: 2.5 mm), comprised of nylon fibers, were arranged in a state in which a columnar structure and a diagonal structure were overlapped based on the constitution of the aforementioned (8) shown in FIG. 8 to produce a disc-like chemical retainer 1 having an overall thickness in the vertical direction of 4.2 mm and an outer diameter of 4.5 cm.
70 mg of Compound A (2,3,5,6-tetrafluorobenzyl-2,2-dimethyl-3-(2,2-dichlorovinyl)cyclopropane carboxylate) was retained instead of the chemical used in Experiment Example 1 and activated for 240 hours.
This chemical retainer 1 was housed in the protective case 4 of Experiment Example 1, activated for 8 hours per day by suspending in a doghouse at a rotating speed of 1400 rpm, and said activation was continued for about 30 days.

mosquitoes = assay: Experiment Example 1: chemical volatilization device activated, mosquito control; assay type: in vivo; conditions: 40 mg Compound C dissolved in kerosene retained in chemical retainer, 1200 rpm, over about 120 hours
Source text: Two-dimensional mesh-like chemical-retaining fibers 2 were woven on both the upper and lower sides using twisted polyester fibers, and supportive connecting chemical-retaining fibers 3 (upper and lower widths: 3 mm), comprised of polyester fibers, were arranged between both sides based on a diagonal structure according to the constitution of the aforementioned (6) as shown in FIG. 6 to produce a disc-like chemical retainer 1 having an overall thickness in the vertical direction of 4.0 mm and an outer diameter of 4.0 cm.
The chemical retainer 1 was housed in a protective case 4 made of polycarbonate (outer diameter: 5.0 cm, thickness: 8 mm), and the protective case 4 employed a roughly circular cross-section for circumferential retaining frames 41.
In this type of chemical retainer 1, a chemical solution, in which 40 mg of Compound C (4-methoxymethyl-2,3,5,6-tetrafluorobenzyl-2,2-dimethyl-3-(1-propenyl)cyclopropane carboxylate) were dissolved in kerosene, was retained in said chemical retainer 1, and after housing in the protective case 4, was activated for 120 hours at a rotating speed of 1200 rpm.

Question: How did the “insecticidal effects against harmful insects during continuous activation” value [1] turn out when CC1(C)C(C=C(Cl)Cl)C1C(=O)OCc1c(F)c(F)cc(F)c1F (centres unmarked) [Compound A, 2,3,5,6-tetrafluorobenzyl-2,2-dimethyl-3-(2,2-dichlorovinyl) cyclopropane carboxylate] was run?
Answer: The value was “stable insecticidal effects”.

Question: How did the “control of mosquitoes during activation” value (mosquitoes) turn out when CC=CC1C(C(=O)OCc2c(F)c(F)c(COC)c(F)c2F)C1(C)C (centres unmarked) [Compound C, 4-methoxymethyl-2,3,5,6-tetrafluorobenzyl-2,2-dimethyl-3-(1-propenyl)cyclopropane carboxylate] was run?
Answer: Its value is “effectively controlled”.
